The text below walks through data of patent US20070129313A1, “Sulfonylamino-peptidomimetics active on the somatostatin receptor subtypes 4 (sstr4) and 1 (sstr1)” (SIEGFRIED WURSTER, priority 2003, published 2007).

Structures are written as SMILES.

One experiment deals with NPFF receptor. Particulars: rat tissue; cited from earlier work.
The target of experiment [1] is T1, human somatostatin receptor subtype SSTR5 (Homo sapiens, UniProt P35346).
T1 construct: expressed in transfected cells; host or cells: Chinese hamster ovary (CHO) cells, membranes
The experiment in a line: Competition binding with 125I-LTT-sst-28, CHO cell membranes, SSTR5. Particulars: membranes of CHO cells stably transfected with human SSTR5, Ki from IC50 by Cheng-Prusoff. The protocol: (§1) The affinity of the compounds of the invention for the five human somatostatin receptor subtypes (SSTR1, SSTR2, SSTR3, SSTR4, and SSTR5) was determined in competition binding assays with (^125I-Tyr)-[Leu^8, DTrp^22]-somatostatin-28 (^125I-LTT-sst-28). The biological material for these experiments consisted of membranes from Chinese hamster ovary (CHO) cells stably transfected with one of the five human somatostatin receptor subtypes. Membranes (3-20 μg of total protein per sample) and trace amount of ^125I-LTT-sst-28 were incubated in 10 mM Hepes, 1 mM EDTA, 5 mM MgCl2, 5 mg/ml of BSA and 30 μg/ml bacitracin, pH 7.6 with six concentrations of the compounds. Each concentration was run in duplicate. Nonspecific binding was defined by 1 μM somatostatin-14 (sst-14) and corresponded to 5-25% of total binding. After 60 min at room temperature, incubations were terminated by rapid vacuum filtration through GF/B glass fiber filter mats (presoaked at 4° C. in 200 ml of 10 mM Hepes, 1 mM EDTA, 5 mM MgCl2, pH 7.6) and three 5 ml washes with ice-cold wash buffer (20 mM TRIS, 1 mM EDTA, 5 mM MgCl2, pH 7.4). The filters were then dried, impregnated with scintillate and their radioactivity was measured by scintillation counting. The analysis of the experiments was carried out by nonlinear least square curve fitting. Affinity constants (Ki) were calculated from the IC50 values according to the Cheng-Prusoff's equation (Cheng and Prusoff, 1973). Experiments were repeated a minimum of three times.

Experiment [2] has as its target T2, human somatostatin receptor subtype SSTR1 (Homo sapiens, UniProt P30872).
T2 construct: expressed in transfected cells; host or cells: Chinese hamster ovary (CHO) cells, membranes
Briefly: Competition binding with 125I-LTT-sst-28, CHO cell membranes, SSTR1. Particulars: membranes of CHO cells stably transfected with human SSTR1, Ki from IC50 by Cheng-Prusoff. The protocol: as §1

Experiment [3] addresses T3, human somatostatin receptor subtype SSTR4 (Homo sapiens, UniProt P31391).
T3 construct: expressed in transfected cells; host or cells: Chinese hamster ovary (CHO) cells, membranes
The experiment in a line: Competition binding with 125I-LTT-sst-28, CHO cell membranes, SSTR4. Particulars: membranes of CHO cells stably transfected with human SSTR4, Ki from IC50 by Cheng-Prusoff. The protocol:
as §1

The target in experiment [4] is T4, human somatostatin receptor subtype SSTR2 (Homo sapiens, UniProt P30874).
T4 construct: expressed in transfected cells; host or cells: Chinese hamster ovary (CHO) cells, membranes
Briefly: Competition binding with 125I-LTT-sst-28, CHO cell membranes, SSTR2. The note with it: membranes of CHO cells stably transfected with human SSTR2, Ki from IC50 by Cheng-Prusoff. The protocol:
as §1

The target in experiment [5] is T5, human somatostatin receptor subtype SSTR3 (Homo sapiens, UniProt P32745).
T5 construct: expressed in transfected cells; host or cells: Chinese hamster ovary (CHO) cells, membranes
Briefly: Competition binding with 125I-LTT-sst-28, CHO cell membranes, SSTR3. Particulars: membranes of CHO cells stably transfected with human SSTR3, Ki from IC50 by Cheng-Prusoff. The protocol:
as §1

T5 sequence (P32745 whole entry): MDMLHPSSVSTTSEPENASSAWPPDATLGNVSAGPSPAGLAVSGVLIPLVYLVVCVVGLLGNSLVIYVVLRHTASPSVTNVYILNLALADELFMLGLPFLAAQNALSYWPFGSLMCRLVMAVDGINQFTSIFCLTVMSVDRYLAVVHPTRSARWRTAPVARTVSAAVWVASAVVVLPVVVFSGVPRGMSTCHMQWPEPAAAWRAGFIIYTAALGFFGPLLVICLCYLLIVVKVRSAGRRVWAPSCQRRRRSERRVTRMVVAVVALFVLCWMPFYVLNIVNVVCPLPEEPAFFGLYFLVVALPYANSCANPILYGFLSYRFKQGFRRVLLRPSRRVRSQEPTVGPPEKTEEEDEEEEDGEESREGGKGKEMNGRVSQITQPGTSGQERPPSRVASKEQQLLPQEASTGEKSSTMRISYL
T3 sequence (P31391 whole entry): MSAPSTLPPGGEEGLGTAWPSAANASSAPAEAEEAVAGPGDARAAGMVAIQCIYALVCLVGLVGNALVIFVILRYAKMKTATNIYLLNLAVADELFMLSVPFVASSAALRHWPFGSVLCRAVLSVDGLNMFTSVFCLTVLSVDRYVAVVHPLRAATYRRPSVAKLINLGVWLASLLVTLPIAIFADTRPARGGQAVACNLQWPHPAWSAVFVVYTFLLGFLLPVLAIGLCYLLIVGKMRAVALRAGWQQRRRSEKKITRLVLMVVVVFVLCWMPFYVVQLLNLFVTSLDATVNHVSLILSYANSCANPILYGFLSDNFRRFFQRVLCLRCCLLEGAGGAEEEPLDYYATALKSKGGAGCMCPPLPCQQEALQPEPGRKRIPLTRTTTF
T1 sequence (P35346 whole entry): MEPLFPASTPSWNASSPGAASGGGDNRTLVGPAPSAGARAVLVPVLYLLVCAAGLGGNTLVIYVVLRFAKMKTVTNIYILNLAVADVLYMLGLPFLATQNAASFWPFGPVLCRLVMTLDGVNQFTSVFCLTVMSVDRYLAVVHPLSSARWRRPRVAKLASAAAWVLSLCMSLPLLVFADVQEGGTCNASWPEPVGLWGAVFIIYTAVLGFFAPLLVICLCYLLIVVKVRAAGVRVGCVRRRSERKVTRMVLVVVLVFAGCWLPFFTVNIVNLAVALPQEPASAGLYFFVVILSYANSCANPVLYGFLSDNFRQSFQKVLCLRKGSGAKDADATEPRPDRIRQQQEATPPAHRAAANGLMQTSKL
T4 sequence (P30874 whole entry): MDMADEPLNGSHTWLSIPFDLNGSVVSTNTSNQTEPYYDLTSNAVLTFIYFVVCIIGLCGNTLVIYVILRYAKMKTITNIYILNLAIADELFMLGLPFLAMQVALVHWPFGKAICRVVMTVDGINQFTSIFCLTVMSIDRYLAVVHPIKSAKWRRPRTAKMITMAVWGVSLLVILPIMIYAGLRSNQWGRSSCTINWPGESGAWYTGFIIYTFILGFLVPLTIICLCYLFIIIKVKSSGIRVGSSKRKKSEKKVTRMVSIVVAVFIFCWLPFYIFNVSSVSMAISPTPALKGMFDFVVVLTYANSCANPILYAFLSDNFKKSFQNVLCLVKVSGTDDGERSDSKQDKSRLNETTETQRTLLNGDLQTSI
T2 sequence (P30872 whole entry): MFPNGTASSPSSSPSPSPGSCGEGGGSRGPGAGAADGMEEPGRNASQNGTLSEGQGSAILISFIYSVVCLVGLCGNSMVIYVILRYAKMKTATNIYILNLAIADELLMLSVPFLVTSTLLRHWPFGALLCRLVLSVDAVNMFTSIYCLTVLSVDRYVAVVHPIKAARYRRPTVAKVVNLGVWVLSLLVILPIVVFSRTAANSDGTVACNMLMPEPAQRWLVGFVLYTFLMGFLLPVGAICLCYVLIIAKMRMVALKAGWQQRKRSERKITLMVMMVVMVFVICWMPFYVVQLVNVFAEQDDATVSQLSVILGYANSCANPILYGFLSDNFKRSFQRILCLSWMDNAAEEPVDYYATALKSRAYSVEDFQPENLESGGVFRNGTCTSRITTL

As to `CN(C)c1cccc2c(S(=O)(=O)N[C@@H](CCCN=C(N)N)C(=O)N[C@@H](Cc3ccccc3)C(N)=O)cccc12` [Dansyl-RFamide], the “affinity for NPFF receptor” value with NPFF receptor is 73 nM.

Turning to `Cc1ccc(S(=O)(=O)N[C@@H](CCCNC(=N)N)C(=O)N[C@@H](Cc2ccccc2)C(N)=O)c2ccccc12` [compound 1, N-((S)-1-carbamoyl-2-phenylethyl)-5-guanidino-(S)-2-(N′-(4-methyl-1-naphthalenesulfonyl)amino)pentanamide], the inhibition constant (Ki) in experiment [1] is over 10000 nM; in experiment [2] it was 73 ± 19 nM; in experiment [3] it was 3.6 ± 0.7 nM; in experiment [4] it was over 10000 nM; in experiment [5] it was over 10000 nM.

Take `Cc1ccc(S(=O)(=O)N[C@@H](CCCNC(=N)N)C(=O)N[C@H](C(N)=O)C(c2ccccc2)c2ccccc2)c2ccccc12` [compound 2, N-((S)-1-carbamoyl-2,2-diphenylethyl)-5-guanidino-(S)-2-(N′-(4-methyl-1-naphthalenesulfonyl)amino)pentanamide]: the Ki in experiment [1] is over 5000 nM; in experiment [2], 34 ± 14 nM; in experiment [3], 1.5 ± 0.7 nM; in experiment [4] it was over 10000 nM; in experiment [5] it was over 5000 nM.

Turning to `Cc1ccc(S(=O)(=O)N[C@@H](CCCN)C(=O)N[C@@H](Cc2ccccc2)C(N)=O)c2ccccc12` [compound 3, 5-amino-N-((S)-1-carbamoyl-2-phenylethyl)-(S)-2-(N′-(4-methyl-1-naphthalenesulfonyl)amino)pentanamide], the inhibitory constant (Ki) in experiment [1] was over 1000 nM; in experiment [2], 260 ± 20 nM; in experiment [3] it was 6.5 ± 1.7 nM; in experiment [4], over 1000 nM; in experiment [5], over 1000 nM.

For `Cc1ccc(S(=O)(=O)N[C@@H](CCN)C(=O)N[C@@H](Cc2ccccc2)C(N)=O)c2ccccc12` [compound 5, 4-amino-N-((S)-1-carbamoyl-2-phenylethyl)-(S)-2-(N′-(4-methyl-1-naphthalenesulfonyl)amino)butanamide], the Ki in experiment [1] is 540 ± 80 nM; in experiment [2], 500 ± 150 nM; in experiment [4], over 1000 nM.

For `CCc1ccc(S(=O)(=O)N[C@@H](CCN)C(=O)N[C@@H](Cc2ccccc2)C(N)=O)c2ccccc12` [compound 6, 4-amino-N-((S)-1-carbamoyl-2-phenylethyl)-(S)-2-(N′-(4-ethyl-1-naphthalenesulfonyl)amino)butanamide], the Ki was 990 ± 80 nM in experiment [2], 2.3 ± 0.4 nM in experiment [3] and over 10000 nM in experiment [4].

Turning to `Cc1ccc(S(=O)(=O)N[C@@H](CCN)C(=O)N[C@H](C(N)=O)C(c2ccccc2)c2ccccc2)c2ccccc12` [compound 7, 4-amino-N-((S)-1-carbamoyl-2,2-diphenylethyl)-(S)-2-(N′-(4-methyl-1-naphthalenesulfonyl)amino)butanamide], the Ki in experiment [1] was over 10000 nM; in experiment [2], over 1000 nM; in experiment [3], 5.3 ± 2.1 nM; in experiment [4], over 10000 nM; in experiment [5], over 5000 nM.

One may read the Ki as a dissociation constant, usually derived from enzyme kinetics or from competition with a known ligand. Read a high Ki as a looser hold on the target.
